The values that follow are results of earlier work, collected in patent publication EP1239029B1, “Cleaning compositions” (UNILEVER PLC, priority 2001, dated 2002).

The structures appear in SMILES notation. Where two headings read alike, the source gives them in different places.

[1] abbreviates: other common materials, by contrast, at 20°C.

`NC(N)=O` [Urea]: the “Water Solubility (g/100g)” value (highly water-soluble materials, grams of solid to form a saturated solution in 100 grams of water at 20°C) is given as >100 g/100g.
With `O=BO[O-].[Na+]` [Sodium perborate anhydrous], under setting [1], the “Water Solubility (g/100g)” value is on record as 3.7 g/100g.
For the molecule `O=P(O)(O)OP(=O)(O)OP(=O)(O)O` [Sodium tripolyphosphate anhydrous], the “Water Solubility (g/100g)” value under setting [1] is listed as 15 g/100g.
